We go through 19 molecules from patent publication US20090246169A1, “INDOLOPYRIDINES AS EG5 KINESIN MODULATORS” (priority 2006, published 2009).

Structures are written as SMILES.

This assay relates to RKO p21 colon adenocarcinoma cells, uninduced (proliferating). As to the kind of experiment: Alamar Blue cell viability assay, RKO p21 uninduced (proliferating). The assay is classed as cell-based. Particulars: Homo sapiens; anti-proliferative/cytotoxic activity, 72 hours, without Ponasterone A; read-out: −log EC50 [mol/l] RKO p21 uninduced (proliferating) (converted). The protocol:
The anti-proliferative/cytotoxic activity of the compounds described herein can be tested on subclones of RKO human colon adenocarcinoma cells (Schmidt et al., Oncogene 19, 2423-2429; 2000) using the Alamar Blue cell viability assay (described in O'Brien et al. Eur J Biochem 267, 5421-5426, 2000). The compounds are dissolved as 10 mM solutions in DMSO and subsequently diluted in semi-logarithmic steps. DMSO dilutions are further diluted 1:100 into Dulbecco's modified Eagle's medium (DMEM) containing 10% fetal calf serum to a final concentration twice as much as the final concentration in the test. RKO subclones are seeded into 96 well flat bottom plates at a density of 4000 cells per well in a volume of 50 μl per well. 24 hours after seeding the 50 μl each of the compound dilutions in DMEM medium are added into each well of the 96 well plate. Each compound dilution is tested as triplicates. Wells containing untreated control cells are filled with 50 μl DMEM medium containing 1% DMSO. The cells are then incubated with the substances for 72 hours at 37° C. in a humidified atmosphere containing 5% carbon dioxide. To determine the viability of the cells, 10 μl of an Alamar Blue solution (Biosource) are added and the fluorescence is measured at an extinction of 544 nm and an emission of 590 nm. For the calculation of the cell viability the emission value from untreated cells is set as 100% viability and the emission rates of treated cells are set in relation to the values of untreated cells. Viabilities are expressed as % values. The Graphpad Prism program is used for the calculation of EC50 values for anti-proliferative/cytotoxic activity out of the obtained dose-response curves.
To determine the cell cycle specific mode of action, subclones of RKO colon adenocarcinoma cells (RKOp21 or RKOp27 as described by Schmidt et al. in Oncogene 19, 2423-2429; 2000) are seeded into 96 well flat bottom plates at a density of 16000 cells per well in a volume of 50 μl per well in DMEM growth medium with 10% FCS containing 10 μM Ponasterone A. 24 hours after seeding the 50 μl each of the compound dilutions in DMEM medium are added into each well of the 96-well plate. Each compound dilution is tested as triplicates. Wells containing untreated control cells are filled with 50 μl DMEM medium containing 1% DMSO. The cells are then incubated with the substances for 72 hours at 37° C. in a humidified atmosphere containing 5% carbon dioxide. To determine the viability of the cells, 10 μl of an Alamar Blue solution (Biosource) are added and the fluorescence is measured at an extinction of 544 nm and an emission of 590 nm. For the calculation of the cell viability the emission value from untreated cells is set as 100% viability and the emission rates of treated cells are set in relation to the values of untreated cells. Viabilities are expressed as % values. The Graphpad Prism program (GraphPad Software, Inc) is used for the calculation of EC50 values out of the obtained dose-response curves. Viability is compared of proliferating cells grown in the absence of the inducer Ponasterone A, versus viability of cells arrested by the expression of ectopic p27Kip1 induced by Ponasterone A.
Representative values for anti-proliferation/cytotoxicity [measured as −log EC50 (mol/l)] determined in the aforementioned assays follow from the following tables B1 and B2, in which the numbers of the compounds correspond to the numbers of the examples.
With `COc1ccc2[nH]c3c(c2c1)C[C@@]1(C)C(=O)N(C)C(=O)N1[C@@H]3c1ccccc1` (racemic) [Example 2, (3aSR,10RS)-6-Methoxy-2,3a-dimethyl-10-phenyl-3a,4,9,10-tetrahydro-2,9,10a-triaza-cyclopenta[b]fluorene-1,3-dione], the EC50 was at most 1 µM.

As to `COc1ccc2[nH]c3c(c2c1)C[C@@]1(C)C(=O)N(CCN2CCCC2)C(=O)N1[C@@H]3c1ccccc1` (racemic) [Example 3, (3aSR,10RS)-6-Methoxy-3a-methyl-10-phenyl-2-(2-pyrrolidin-1-yl-ethyl)-3a,4,9,10-tetrahydro-2,9,10a-triaza-cyclopenta[b]fluorene-1,3-dione], the EC50 was at most 1 µM. Consider `CC[C@@]12Cc3c([nH]c4ccc(OC)cc34)[C@@H](c3ccccc3)N1C(=O)N(CCN(C)C)C2=O` (racemic) [Example 5, (3aSR,10RS)-2-(2-Dimethylamino-ethyl)-3a-ethyl-6-methoxy-10-phenyl-3a,4,9,10-tetrahydro-2,9,10a-triaza-cyclopenta[b]fluorene-1,3-dione], for which the EC50 was at most 1 µM. For `CC[C@@]12Cc3c([nH]c4ccc(OC)cc34)[C@@H](c3ccccc3)N1C(=O)N(CCCN(C)C)C2=O` (racemic) [Example 6, (3aSR,10RS)-2-(3-Dimethylamino-propyl)-3a-ethyl-6-methoxy-10-phenyl-3a,4,9,10-tetrahydro-2,9,10a-triaza-cyclopenta[b]fluorene-1,3-dione] the value was at most 1 µM; for `COc1ccc2[nH]c3c(c2c1)C[C@@]1(C)C(=O)N(CCCN)C(=O)N1[C@@H]3c1ccccc1` (racemic) [Example 7, (3aSR,10RS)-2-(3-Amino-propyl)-6-methoxy-3a-methyl-10-phenyl-3a,4,9,10-tetrahydro-2,9,10a-triaza-cyclopenta[b]fluorene-1,3-dione], at most 1 µM. With `CC[C@@]12Cc3c([nH]c4ccc(OC)cc34)[C@@H](c3ccccc3)N1C(=O)N(CCN)C2=O` (racemic) [Example 10, (3aSR,10RS)-2-(2-Amino-ethyl)-3a-ethyl-6-methoxy-10-phenyl-3a,4,9,10-tetrahydro-2,9,10a-triaza-cyclopenta[b]fluorene-1,3-dione] the figure was at most 1 µM; with `COc1ccc2[nH]c3c(c2c1)C[C@@]1(C)C(=O)N(CCN)C(=O)N1[C@@H]3c1ccccc1` (racemic) [Example 13, (3aSR,10RS)-2-(2-Amino-ethyl)-6-methoxy-3a-methyl-10-phenyl-3a,4,9,10-tetrahydro-2,9,10a-triaza-cyclopenta[b]fluorene-1,3-dione], at most 1 µM; with `CNCCN1C(=O)N2[C@H](c3ccccc3)c3[nH]c4ccc(OC)cc4c3C[C@@]2(C)C1=O` (racemic) [Example 14, (3aSR,10RS)-6-Methoxy-3a-methyl-2-(2-methylamino-ethyl)-10-phenyl-3a,4,9,10-tetrahydro-2,9,10a-triaza-cyclopenta[b]fluorene-1,3-dione], at most 1 µM. With `CCNCCN1C(=O)N2[C@H](c3ccccc3)c3[nH]c4ccc(OC)cc4c3C[C@@]2(C)C1=O` (racemic) [Example 15, (3aSR,10RS)-2-(2-Ethylamino-ethyl)-6-methoxy-3a-methyl-10-phenyl-3a,4,9,10-tetrahydro-2,9,10a-triaza-cyclopenta[b]fluorene-1,3-dione] the figure was at most 1 µM; with `COc1ccc2[nH]c3c(c2c1)C[C@@]1(C)C(=O)N(CCN2CCC2)C(=O)N1[C@@H]3c1ccccc1` (racemic) [Example 16, (3aSR,10RS)-2-(2-Azetidin-1-yl-ethyl)-6-methoxy-3a-methyl-10-phenyl-3a,4,9,10-tetrahydro-2,9,10a-triaza-cyclopenta[b]fluorene-1,3-dione], at most 1 µM. As for `COc1ccc2[nH]c3c(c2c1)C[C@@]1(C)C(=O)N(CCNC(C)C)C(=O)N1[C@@H]3c1ccccc1` (racemic) [Example 19, (3aSR,10RS)-2-(2-Isopropylamino-ethyl)-6-methoxy-3a-methyl-10-phenyl-3a,4,9,10-tetrahydro-2,9,10a-triaza-cyclopenta[b]fluorene-1,3-dione], the EC50 is at most 1 µM. For the molecule `COc1ccc2[nH]c3c(c2c1)C[C@@]1(C)C(=O)N(CCNCC2CC2)C(=O)N1[C@@H]3c1ccccc1` (racemic) [Example 25, (3aSR, 10RS)-2-[2-(Cyclo-propylmethyl-amino)-ethyl]-6-methoxy-3a-methyl-10-phenyl-3a,4,9,10-tetrahydro-2,9,10a-triaza-cyclopenta [b]fluorene-1,3-dione], the EC50 is at most 1 µM. Regarding `COc1ccc2[nH]c3c(c2c1)C[C@@]1(C)C(=O)N(CCNCCO)C(=O)N1[C@@H]3c1ccccc1` (racemic) [Example 26, (3aSR, 10RS)-2-[2-(2-Hydroxy-ethylamino)-ethyl]-6-methoxy-3a-methyl-10-phenyl-3a,4,9,10-tetrahydro-2,9,10a-triaza-cyclopenta[b] fluorene-1,3-dione], the EC50 was at most 1 µM. As for `COc1ccc2[nH]c3c(c2c1)C[C@@]1(C)C(=O)N(CCNC(C)(C)C)C(=O)N1[C@@H]3c1ccccc1` (racemic) [Example 27, (3aSR, 10RS)-2-(2-tert-Butylamino-ethyl)-6-methoxy-3a-methyl-10-phenyl-3a,4,9,10-tetrahydro-2,9,10a-triaza-cyclopenta[b]fluorene-1,3-dione], the EC50 is at most 1 µM.

As to `C=CCNCCN1C(=O)N2[C@H](c3ccccc3)c3[nH]c4ccc(OC)cc4c3C[C@@]2(C)C1=O` (racemic) [Example 28, (3aSR, 10RS)-2-(2-Allyl-amino-ethyl)-6-methoxy-3a-methyl-10-phenyl-3a,4,9,10-tetrahydro-2,9,10a-triaza-cyclopenta[b]fluorene-1,3-dione], the EC50 was at most 1 µM. For the molecule `C#CCNCCN1C(=O)N2[C@H](c3ccccc3)c3[nH]c4ccc(OC)cc4c3C[C@@]2(C)C1=O` (racemic) [Example 29, (3aSR, 10RS)-6-Methoxy-3a-methyl-10-phenyl-2-(2-prop-2-ynylamino-ethyl)-3a,4,9,10-tetrahydro-2,9,10a-triaza-cyclopenta[b]fluorene-1,3-dione], the EC50 is at most 1 µM. With `COc1ccc2[nH]c3c(c2c1)C[C@@]1(C)C(=O)N(CCN(C)CCO)C(=O)N1[C@@H]3c1ccccc1` (racemic) [Example 30, (3aSR, 10RS)-2-{2-[(2-Hydroxy-ethyl)-methyl-amino]-ethyl}-6-methoxy-3a-methyl-10-phenyl-3a,4,9,10-tetrahydro-2,9,10a-triaza-cyclopenta[b]fluorene-1,3-dione] the figure was at most 1 µM; with `COc1ccc2[nH]c3c(c2c1)C[C@@]1(C)C(=O)N(CCN2CC=CC2)C(=O)N1[C@@H]3c1ccccc1` (racemic) [Example 31, (3aSR, 10RS)-2-[2-(2,5-Dihydro-pyrrol-1-yl)-ethyl]-6-methoxy-3a-methyl-10-phenyl-3a,4,9,10-tetrahydro-2,9,10a-triaza-cyclopenta[b] fluorene-1,3-dione], at most 1 µM; with `COc1ccc2[nH]c3c(c2c1)C[C@@]1(C)C(=O)N(CCN2CCCCC2)C(=O)N1[C@@H]3c1ccccc1` (racemic) [Example 32, (3aSR, 10RS)-6-Methoxy-3a-methyl-10-phenyl-2-(2-piperidin-1-yl-ethyl)-3a,4,9,10-tetrahydro-2,9,10a-triaza-cyclopenta[b]fluorene-1,3-dione], at most 1 µM.
